Measured values: patent US20230190690A1, “[…] AND/OR […] FOR CORONAVIRUS DISEASE 2019 (COVID-19)” (NEOPHARMA JAPAN CO., LTD., priority 2020, published 2023)
Like-named read-outs stand apart in the source and are kept apart here.

Columns and labels:
[1] = test system: coronavirus disease 2019 (COVID-19); test: Treatment example: intake of supplement capsules by a patient with COVID-19 symptoms; assay type: in vivo, human; details: 1 patient; intake of capsules over two days
SARS-CoV-2 [2] = test: microbe, parasite or virus in culture; assay type: cell-based, SARS-CoV-2 (VeroE6, African green monkey kidney cells)
SARS-CoV-2 [3] = test: microbe, parasite or virus in culture; assay type: cell-based, SARS-CoV-2 (Caco-2, human colon cancer cells)
[4] = test system: VeroE6 cells, Caco-2 cells; test: Cytotoxic effect in VeroE6 and Caco-2 cells; assay type: cell-based; details: all concentration ranges tested (up to 2000 uM)
Experimental: In order to confirm the dose dependence in the inhibitory effect on SARS-CoV-2 infection and/or proliferation, the agents at each concentration were tested.

Row | Compound | various symptoms of coronavirus disease 2019 (COVID-19) [1] | IC50 (SARS-CoV-2 [2]; Severe acute respiratory syndrome coronavirus 2, Vero C1008, VeroE6 cells, FIG. 5, read-out: IC50 of inhibition of SARS-CoV-2 infection and/or proliferation) [µM] | infection with SARS-CoV-2 (SARS-CoV-2 [2]; VeroE6, number of seeded cells 1×10^4 cells/well) | SARS-CoV-2 infection and/or proliferation (SARS-CoV-2 [3]) | IC50 (SARS-CoV-2 [3]; Severe acute respiratory syndrome coronavirus 2, Caco-2 cells, FIG. 6, read-out: IC50 of inhibition of SARS-CoV-2 infection and/or proliferation) [µM] | cytotoxicity [4] | inhibitory effect on SARS-CoV-2 infection and/or proliferation, dose dependence (SARS-CoV-2 [2]; VeroE6 cells, FIG. 5)
1 | NCC(=O)CCC(=O)O [5-ALA, 5-aminolevulinic acid] | remarkably improved | 570 | significantly inhibited | strongly inhibited | 39 | did not show significant cytotoxicity | –
2 | sodium ferrous citrate [SFC] | – | – | – | – | – | – | no inhibitory effect
